Measurements published in patent US9808003B2, “Herbicidally active 2-(substituted-phenyl)-cyclopentane-1,3-dione compounds and derivatives thereof” (Syngenta Limited, priority 2013, dated 2017).

Key:
Format in all cases: in vivo
Spring Wheat “Freya” = assay: Test 1B glasshouse assay, post-emergence herbicidal activity against cereal crops
Poa annua (POAAN) = assay: Test 1B glasshouse assay, post-emergence herbicidal activity against grassy weeds; conditions: 14 DAA
Procedure: (§1) Biological Example 1B tests the herbicidal activity of“technical” compounds (i.e. compounds not previously formulated before the test), as the herbicides under test.
(§2) An “instant formulation”, known as the “IF50”, containing 50 g/liter (i.e. 5% w/v) of the “technical” (i.e. unformulated) active ingredient (i.e. the herbicide under test), is prepared by dissolving the active ingredient in a mixture of organic solvents and emulsifier, details of which are provided in the Table below.
(§3) This IF50 is mixed with a small, variable amount of acetone to aid dissolution, before addition of a 0.5% v/v aqueous solution of the adjuvant Adigor™ (an adjuvant containing rapeseed oil methyl ester, ethoxylated alcohols, and a mixture of heavy aromatic hydrocarbons, e.g. available from Syngenta), as the aqueous diluent, to form an aqueous spray solution which contains a predetermined concentration of the active ingredient (which varies depending on the application rate of the active ingredient to the plants) and 0.5% v/v of the adjuvant Adigor™. This aqueous spray solution is suitable for spraying onto plants.
(§4) Seeds of a variety of test species are sown in standard soil in pots. After cultivation for 14 days under controlled conditions in a glasshouse (at 22/16° C., day/night; 16 hours light; 65% humidity), the plants are sprayed post-emergence with the above-mentioned aqueous spray solution containing inter alia the “technical” active ingredient (i.e. the herbicide under test) and the adjuvant Adigor™.
(§5) The test plants are then grown on under controlled conditions in the glasshouse (at 22/16° C., day/night; 16 hours light; 65% humidity) and are watered twice daily. 14 days after application of the test herbicide, the test is evaluated visually for percentage phytotoxicity to the plant (where 100%=total damage to plant; 0%=no damage to plant).
(§6) More specifically, post-emergence herbicidal activity (phytotoxicity) data, on certain tested grassy monocotyledonous weeds (and/or plants of the type Gramineae) and cereal crops in the glasshouse, are measured 14 days after application of the herbicide (14 DAA), typically for inter alia one or more of the following application rates: • (a) a post-emergence application rate of 60 g/ha of the test herbicide with or without 50 g/ha of cloquintocet-mexyl safener, and • (b) a post-emergence application rate of 90 g/ha of the test herbicide with 50 g/ha of cloquintocet-mexyl safener, and • (c) a post-emergence application rate of 120 g/ha of the test herbicide with 50 g/ha of cloquintocet-mexyl safener.
(§7) The cloquintocet-mexyl, when used, is present in the formulation containing the herbicide under test dissolved in acetone plus IF50.
(§8) The range of herbicide application rates tested sometimes includes application rates other than those shown above, and the rates can vary depending on the herbicide under test.
(§9) Herbicidal activity (phytotoxicity) is evaluated visually, and an assessed percentage phytotoxicity score is given for each herbicidal application on each plant species (with 100%=total damage to plant; 0%=no damage to plant; the assessment is recorded in increments of 1%). Two replicates are made for each experiment, and the mean herbicidal activity (phytotoxicity) data is reported.
(§10) For compounds A34, A98, A99, A87, A100, A101, A89, A120, A120A, A120B, A23, A127, A128, A89, A112 and A113 the tested weeds were as follows: Avena fatua (AVEFA), Lolium multiflorum (LOLMU), Setaria viridis (SETVI), Poa annua (POAAN), Alopecurus myosuroides (ALOMY). All five of these are grassy monocotyledonous weeds. Except for SETVI, these are all “cool-season” grassy monocotyledonous weeds.

Avena fatua (AVEFA) = assay: as above; conditions: 14 DAA
Procedure: as §1, §2, §3, §4, §5, §6, §7, §8, §9, §10

[1] = system: Lolium multiflorum (LOLMU); assay: as above; conditions: 14 DAA
Procedure: as §1, §2, §3, §4, §5, §6, §7, §8, §9, §10

Setaria viridis (SETVI) = assay: as above; conditions: 14 DAA
Procedure: as §1, §2, §3, §4, §5, §6, §7, §8, §9, §10

[2] = system: Alopecurus myosuroides (ALOMY); assay: as above; conditions: 14 DAA
Procedure: as §1, §2, §3, §4, §5, §6, §7, §8, §9, §10

Winter Wheat “Hereward” = assay: Test 1B glasshouse assay, post-emergence herbicidal activity against cereal crops; conditions: for Post-emergence herbicidal activity against cereal crops, percentage phytotoxicity, Winter Wheat “Hereward”: 14 DAA
Procedure: as §1, §2, §3, §4, §5, §6, §7, §8, §9

Winter Barley “Suzuka” = assay: as above; conditions: for Post-emergence herbicidal activity against cereal crops, percentage phytotoxicity, Winter Barley “Suzuka”: 14 DAA
Procedure: as §1, §2, §3, §4, §5, §6, §7, §8, §9

[3] = system: Spring Barley “Harrington”; assay: as above; conditions: for Post-emergence herbicidal activity against cereal crops, percentage phytotoxicity, Spring Barley “Harrington”: 14 DAA
Procedure: as §1, §2, §3, §4, §5, §6, §7, §8, §9

Spring Wheat “Teal” = assay: as above; conditions: 14 DAA
Procedure: as §1, §2, §3, §4, §5, §6, §7, §8, §9

[4] = herbicide 30 g/ha, cloquintocet-mexyl 50 g/ha
[5] = herbicide 45 g/ha, cloquintocet-mexyl 50 g/ha
[6] = herbicide 60 g/ha, cloquintocet-mexyl 0 g/ha
[7] = herbicide 60 g/ha, cloquintocet-mexyl 50 g/ha
[8] = 30 g/ha herbicide, 50 g/ha cloquintocet-mexyl
[9] = 45 g/ha herbicide, 50 g/ha cloquintocet-mexyl
[10] = 60 g/ha herbicide, 0 g/ha cloquintocet-mexyl
[11] = 60 g/ha herbicide, 50 g/ha cloquintocet-mexyl
[12] = 60 g/ha herbicide, 0 g/ha cloquintocet-mexyl, test result no. 1 (T1)
[13] = 60 g/ha herbicide, 50 g/ha cloquintocet-mexyl, test result no. 1 (T1)
[14] = 60 g/ha herbicide, 50 g/ha cloquintocet-mexyl, test result no. 2 (T2)
[15] = 90 g/ha herbicide, 50 g/ha cloquintocet-mexyl, test result no. 2 (T2)
[16] = 120 g/ha herbicide, 50 g/ha cloquintocet-mexyl, test result no. 2 (T2)

Question: Which results are given for `Cc1cc(C)c(C2C(=O)C[C@@H](CCNC(=O)c3cccc(F)n3)C2=O)c(C)c1` (stereo partly drawn) [Compound A112]?
Answer: Percentage Phytotoxicity Spring Wheat “Freya” (Spring Wheat “Freya”; [4]): 25%; Percentage Phytotoxicity Spring Wheat “Freya” (Spring Wheat “Freya”; [5]): 33%; Percentage Phytotoxicity Spring Wheat “Freya” (Spring Wheat “Freya”; [6]): 75%; Percentage Phytotoxicity Spring Wheat “Freya” (Spring Wheat “Freya”; [7]): 50%; Post-emergence herbicidal activity, percentage phytotoxicity, POAAN (Poa annua (POAAN); [8]): 0%; Post-emergence herbicidal activity, percentage phytotoxicity, POAAN (Poa annua (POAAN); [9]): 0%; Post-emergence herbicidal activity, percentage phytotoxicity, POAAN (Poa annua (POAAN); [10]): 40%; Post-emergence herbicidal activity, percentage phytotoxicity, POAAN (Poa annua (POAAN); [11]): 13%; Post-emergence herbicidal activity, percentage phytotoxicity, AVEFA (Avena fatua (AVEFA); [8]): 93%; Post-emergence herbicidal activity, percentage phytotoxicity, AVEFA (Avena fatua (AVEFA); [9]): 94%; Post-emergence herbicidal activity, percentage phytotoxicity, AVEFA (Avena fatua (AVEFA); [10]): 98%; Post-emergence herbicidal activity, percentage phytotoxicity, AVEFA (Avena fatua (AVEFA); [11]): 97%; Post-emergence herbicidal activity, percentage phytotoxicity, LOLMU [1, 8]: 98%; Post-emergence herbicidal activity, percentage phytotoxicity, LOLMU [1, 9]: 100%; Post-emergence herbicidal activity, percentage phytotoxicity, LOLMU [1, 10]: 100%; Post-emergence herbicidal activity, percentage phytotoxicity, LOLMU [1, 11]: 100%; Post-emergence herbicidal activity, percentage phytotoxicity, SETVI (Setaria viridis (SETVI); [8]): 100%; Post-emergence herbicidal activity, percentage phytotoxicity, SETVI (Setaria viridis (SETVI); [9]): 100%; Post-emergence herbicidal activity, percentage phytotoxicity, SETVI (Setaria viridis (SETVI); [10]): 100%; Post-emergence herbicidal activity, percentage phytotoxicity, SETVI (Setaria viridis (SETVI); [11]): 100%; Post-emergence herbicidal activity, percentage phytotoxicity, ALOMY [2, 8]: 97%; Post-emergence herbicidal activity, percentage phytotoxicity, ALOMY [2, 9]: 97%; Post-emergence herbicidal activity, percentage phytotoxicity, ALOMY [2, 10]: 99%; Post-emergence herbicidal activity, percentage phytotoxicity, ALOMY [2, 11]: 98%; Percentage Phytotoxicity Winter Wheat “Hereward” (Winter Wheat “Hereward”; [4]): 33%; Percentage Phytotoxicity Winter Wheat “Hereward” (Winter Wheat “Hereward”; [5]): 40%; Percentage Phytotoxicity Winter Wheat “Hereward” (Winter Wheat “Hereward”; [6]): 85%; Percentage Phytotoxicity Winter Wheat “Hereward” (Winter Wheat “Hereward”; [7]): 50%; Percentage Phytotoxicity Winter Barley “Suzuka” (Winter Barley “Suzuka”; [4]): 18%; Percentage Phytotoxicity Winter Barley “Suzuka” (Winter Barley “Suzuka”; [5]): 30%; Percentage Phytotoxicity Winter Barley “Suzuka” (Winter Barley “Suzuka”; [6]): 88%; Percentage Phytotoxicity Winter Barley “Suzuka” (Winter Barley “Suzuka”; [7]): 53%; Percentage Phytotoxicity Spring Barley “Harrington” [3, 4]: 30%; Percentage Phytotoxicity Spring Barley “Harrington” [3, 5]: 45%; Percentage Phytotoxicity Spring Barley “Harrington” [3, 6]: 93%; Percentage Phytotoxicity Spring Barley “Harrington” [3, 7]: 73%

Question: What does the source list for `Cc1cc(-n2cc(Cl)cn2)cc(C)c1C1C(=O)C[C@H](CCNC(=O)c2ccccn2)C1=O` (stereo partly drawn) [Compound A99]?
Answer: Post-emergence herbicidal activity, percentage phytotoxicity, POAAN (Poa annua (POAAN); [12]): 70 (T1) %; Post-emergence herbicidal activity, percentage phytotoxicity, POAAN (Poa annua (POAAN); [13]): 73 (T1); %; Post-emergence herbicidal activity, percentage phytotoxicity, POAAN (Poa annua (POAAN); [14]): 70 (T2) %; Post-emergence herbicidal activity, percentage phytotoxicity, POAAN (Poa annua (POAAN); [15]): 73 (T2) %; Post-emergence herbicidal activity, percentage phytotoxicity, POAAN (Poa annua (POAAN); [16]): 75 (T2) %; Post-emergence herbicidal activity, percentage phytotoxicity, AVEFA (Avena fatua (AVEFA); [12]): 50 (T1) %; Post-emergence herbicidal activity, percentage phytotoxicity, AVEFA (Avena fatua (AVEFA); [13]): 40 (T1); %; Post-emergence herbicidal activity, percentage phytotoxicity, AVEFA (Avena fatua (AVEFA); [14]): 48 (T2) %; Post-emergence herbicidal activity, percentage phytotoxicity, AVEFA (Avena fatua (AVEFA); [15]): 60 (T2) %; Post-emergence herbicidal activity, percentage phytotoxicity, AVEFA (Avena fatua (AVEFA); [16]): 78 (T2) %; Post-emergence herbicidal activity, percentage phytotoxicity, LOLMU [1, 12]: 35 (T1) %; Post-emergence herbicidal activity, percentage phytotoxicity, LOLMU [1, 13]: 35 (T1); %; Post-emergence herbicidal activity, percentage phytotoxicity, LOLMU [1, 14]: 55 (T2) %; Post-emergence herbicidal activity, percentage phytotoxicity, LOLMU [1, 15]: 65 (T2) %; Post-emergence herbicidal activity, percentage phytotoxicity, LOLMU [1, 16]: 78 (T2) %; Post-emergence herbicidal activity, percentage phytotoxicity, SETVI (Setaria viridis (SETVI); [12]): 10 (T1) %; Post-emergence herbicidal activity, percentage phytotoxicity, SETVI (Setaria viridis (SETVI); [13]): 8 (T1); %; Post-emergence herbicidal activity, percentage phytotoxicity, SETVI (Setaria viridis (SETVI); [14]): 33 (T2) %; Post-emergence herbicidal activity, percentage phytotoxicity, SETVI (Setaria viridis (SETVI); [15]): 68 (T2) %; Post-emergence herbicidal activity, percentage phytotoxicity, SETVI (Setaria viridis (SETVI); [16]): 75 (T2) %; Post-emergence herbicidal activity, percentage phytotoxicity, ALOMY [2, 12]: 50 (T1) %; Post-emergence herbicidal activity, percentage phytotoxicity, ALOMY [2, 13]: 35 (T1); %; Post-emergence herbicidal activity, percentage phytotoxicity, ALOMY [2, 14]: 38 (T2) %; Post-emergence herbicidal activity, percentage phytotoxicity, ALOMY [2, 15]: 58 (T2) %; Post-emergence herbicidal activity, percentage phytotoxicity, ALOMY [2, 16]: 73 (T2) %; Post-emergence herbicidal activity against cereal crops, percentage phytotoxicity, Winter Wheat “Hereward” (Winter Wheat “Hereward”; [12]): 0 (T1) %; Post-emergence herbicidal activity against cereal crops, percentage phytotoxicity, Winter Wheat “Hereward” (Winter Wheat “Hereward”; [13]): 1 (T1); %; Post-emergence herbicidal activity against cereal crops, percentage phytotoxicity, Winter Wheat “Hereward” (Winter Wheat “Hereward”; [14]): 0 (T2) %; Post-emergence herbicidal activity against cereal crops, percentage phytotoxicity, Winter Wheat “Hereward” (Winter Wheat “Hereward”; [15]): 0 (T2) %; Post-emergence herbicidal activity against cereal crops, percentage phytotoxicity, Winter Wheat “Hereward” (Winter Wheat “Hereward”; [16]): 8 (T2) %; Post-emergence herbicidal activity against cereal crops, percentage phytotoxicity, Spring Wheat “Teal” (Spring Wheat “Teal”; [12]): 2 (T1) %; Post-emergence herbicidal activity against cereal crops, percentage phytotoxicity, Spring Wheat “Teal” (Spring Wheat “Teal”; [13]): 1 (T1); %; Post-emergence herbicidal activity against cereal crops, percentage phytotoxicity, Spring Wheat “Teal” (Spring Wheat “Teal”; [14]): 5 (T2) %; Post-emergence herbicidal activity against cereal crops, percentage phytotoxicity, Spring Wheat “Teal” (Spring Wheat “Teal”; [15]): 5 (T2) %; Post-emergence herbicidal activity against cereal crops, percentage phytotoxicity, Spring Wheat “Teal” (Spring Wheat “Teal”; [16]): 8 (T2) %; Post-emergence herbicidal activity against cereal crops, percentage phytotoxicity, Winter Barley “Suzuka” (Winter Barley “Suzuka”; [12]): 60 (T1) %; Post-emergence herbicidal activity against cereal crops, percentage phytotoxicity, Winter Barley “Suzuka” (Winter Barley “Suzuka”; [13]): 15 (T1); %; Post-emergence herbicidal activity against cereal crops, percentage phytotoxicity, Winter Barley “Suzuka” (Winter Barley “Suzuka”; [14]): 14 (T2) %; Post-emergence herbicidal activity against cereal crops, percentage phytotoxicity, Winter Barley “Suzuka” (Winter Barley “Suzuka”; [15]): 35 (T2) %; Post-emergence herbicidal activity against cereal crops, percentage phytotoxicity, Winter Barley “Suzuka” (Winter Barley “Suzuka”; [16]): 38 (T2) %; Post-emergence herbicidal activity against cereal crops, percentage phytotoxicity, Spring Barley “Harrington” [3, 12]: 15 (T1) %; Post-emergence herbicidal activity against cereal crops, percentage phytotoxicity, Spring Barley “Harrington” [3, 13]: 3 (T1); %; Post-emergence herbicidal activity against cereal crops, percentage phytotoxicity, Spring Barley “Harrington” [3, 14]: 3 (T2) %; Post-emergence herbicidal activity against cereal crops, percentage phytotoxicity, Spring Barley “Harrington” [3, 15]: 5 (T2) %; Post-emergence herbicidal activity against cereal crops, percentage phytotoxicity, Spring Barley “Harrington” [3, 16]: 8 (T2) %
